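The compound was tested at five concentrations on cells cultured in 96-well plates, with a 48-hour exposure period. GI50 is the concentration that inhibits growth by half. Definition used: TGI = concentration required for complete inhibition of growth.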
How the values were obtained:
Assay in all cases: NCI-60 cell line screen, 48 h
A549 NSCLC = system: A549 NSCLC
K-562 leukemia = system: K-562 leukemia
SNB-75 CNS = system: SNB-75 CNS
CAKI-1 renal = system: CAKI-1 renal
MDA-MB-468 breast = system: MDA-MB-468 breast
IGROV1 ovarian = system: IGROV1 ovarian
TK-10 renal = system: TK-10 renal
NCI-H522 lung = system: NCI-H522 lung
UO-31 renal = system: UO-31 renal
EKVX NSCLC = system: EKVX NSCLC
SN12C renal = system: SN12C renal
SNB-19 CNS = system: SNB-19 CNS
BT-549 breast = system: BT-549 breast
M14 melanoma = system: M14 melanoma
U251 CNS = system: U251 CNS
HL-60(TB) leukemia = system: HL-60(TB) leukemia
MCF7 breast = system: MCF7 breast
HT29 colon = system: HT29 colon
LOX IMVI melanoma = system: LOX IMVI melanoma
SK-MEL-28 melanoma = system: SK-MEL-28 melanoma
HOP-62 NSCLC = system: HOP-62 NSCLC
KM12 colon = system: KM12 colon
HS 578T breast = system: HS 578T breast
HCC-2998 colon = system: HCC-2998 colon
COLO 205 colon = system: COLO 205 colon
786-0 renal = system: 786-0 renal
NCI/ADR-RES ovarian = system: NCI/ADR-RES ovarian
OVCAR-3 ovarian = system: OVCAR-3 ovarian
DU-145 prostate = system: DU-145 prostate
OVCAR-8 ovarian = system: OVCAR-8 ovarian
SF-295 CNS = system: SF-295 CNS
HCT-116 colon = system: HCT-116 colon
ACHN renal = system: ACHN renal
MALME-3M melanoma = system: MALME-3M melanoma
PC-3 prostate = system: PC-3 prostate
SR leukemia = system: SR leukemia
OVCAR-5 ovarian = system: OVCAR-5 ovarian
SK-MEL-5 melanoma = system: SK-MEL-5 melanoma
SF-539 CNS = system: SF-539 CNS
A498 renal = system: A498 renal
MDA-MB-435 = system: MDA-MB-435
OVCAR-4 ovarian = system: OVCAR-4 ovarian
NCI-H460 lung = system: NCI-H460 lung
RXF 393 renal = system: RXF 393 renal
RPMI-8226 leukemia = system: RPMI-8226 leukemia
HOP-92 NSCLC = system: HOP-92 NSCLC
CCRF-CEM leukemia = system: CCRF-CEM leukemia
SF-268 CNS = system: SF-268 CNS
NCI-H23 lung = system: NCI-H23 lung
SK-MEL-2 melanoma = system: SK-MEL-2 melanoma
UACC-62 melanoma = system: UACC-62 melanoma
SW-620 colon = system: SW-620 colon
MOLT-4 leukemia = system: MOLT-4 leukemia
HCT-15 colon = system: HCT-15 colon
T-47D breast = system: T-47D breast
MDA-MB-231 breast = system: MDA-MB-231 breast
UACC-257 melanoma = system: UACC-257 melanoma
SK-OV-3 ovarian = system: SK-OV-3 ovarian
NCI-H226 lung = system: NCI-H226 lung

CS(=O)(=O)Nc1cc(-c2ccc3ncnc(Nc4ccc(OCc5cccnc5)c(Cl)c4)c3c2)cnc1Cl
GI50 (A549 NSCLC): 7760 nM | TGI (A549 NSCLC): 25100 nM | GI50 (K-562 leukemia): 1850 nM | TGI (K-562 leukemia): 32400 nM | GI50 (SNB-75 CNS): 139 nM | TGI (SNB-75 CNS): 4370 nM | GI50 (CAKI-1 renal): 935 nM | TGI (CAKI-1 renal): 6450 nM | GI50 (MDA-MB-468 breast): 208 nM | TGI (MDA-MB-468 breast): 962 nM | GI50 (IGROV1 ovarian): 231 nM | TGI (IGROV1 ovarian): 1090 nM | GI50 (TK-10 renal): 714 nM | TGI (TK-10 renal): 5510 nM | GI50 (NCI-H522 lung): 641 nM | TGI (NCI-H522 lung): 4390 nM | GI50 (UO-31 renal): 1680 nM | TGI (UO-31 renal): 20300 nM | GI50 (EKVX NSCLC): 970 nM | TGI (EKVX NSCLC): 6250 nM | GI50 (SN12C renal): 904 nM | TGI (SN12C renal): 11300 nM | GI50 (SNB-19 CNS): 1150 nM | TGI (SNB-19 CNS): 9240 nM | GI50 (BT-549 breast): 379 nM | TGI (BT-549 breast): 2220 nM | GI50 (M14 melanoma): 1510 nM | TGI (M14 melanoma): 13800 nM | GI50 (U251 CNS): 917 nM | TGI (U251 CNS): 4650 nM | GI50 (HL-60(TB) leukemia): 335 nM | TGI (HL-60(TB) leukemia): 10300 nM | GI50 (MCF7 breast): 410 nM | TGI (MCF7 breast): 8330 nM | GI50 (HT29 colon): 1950 nM | TGI (HT29 colon): 13200 nM | GI50 (LOX IMVI melanoma): 792 nM | TGI (LOX IMVI melanoma): 2730 nM | GI50 (SK-MEL-28 melanoma): 652 nM | TGI (SK-MEL-28 melanoma): 8640 nM | GI50 (HOP-62 NSCLC): 1560 nM | TGI (HOP-62 NSCLC): 40900 nM | GI50 (KM12 colon): 3820 nM | TGI (KM12 colon): 15200 nM | GI50 (HS 578T breast): 196 nM | TGI (HS 578T breast): 1700 nM | GI50 (HCC-2998 colon): 1590 nM | TGI (HCC-2998 colon): 5220 nM | GI50 (COLO 205 colon): 1410 nM | TGI (COLO 205 colon): 3590 nM | GI50 (786-0 renal): 1810 nM | TGI (786-0 renal): 11100 nM | GI50 (NCI/ADR-RES ovarian): 32700 nM | TGI (NCI/ADR-RES ovarian): > 100000 nM | GI50 (OVCAR-3 ovarian): 700 nM | TGI (OVCAR-3 ovarian): 3480 nM | GI50 (DU-145 prostate): 2740 nM | TGI (DU-145 prostate): 21500 nM | GI50 (OVCAR-8 ovarian): 2560 nM | TGI (OVCAR-8 ovarian): 20500 nM | GI50 (SF-295 CNS): 2370 nM | TGI (SF-295 CNS): 12100 nM | GI50 (HCT-116 colon): 1690 nM | TGI (HCT-116 colon): 4550 nM | GI50 (ACHN renal): 4450 nM | TGI (ACHN renal): > 48800 nM | GI50 (MALME-3M melanoma): 271 nM | TGI (MALME-3M melanoma): 2130 nM | GI50 (PC-3 prostate): 1660 nM | TGI (PC-3 prostate): 14300 nM | GI50 (SR leukemia): 746 nM | TGI (SR leukemia): > 20600 nM | GI50 (OVCAR-5 ovarian): 2240 nM | TGI (OVCAR-5 ovarian): 18000 nM | GI50 (SK-MEL-5 melanoma): 617 nM | TGI (SK-MEL-5 melanoma): 1930 nM | GI50 (SF-539 CNS): 852 nM | TGI (SF-539 CNS): 3500 nM | GI50 (A498 renal): 1840 nM | TGI (A498 renal): 6490 nM | GI50 (MDA-MB-435): 1160 nM | TGI (MDA-MB-435): 9240 nM | GI50 (OVCAR-4 ovarian): 4910 nM | TGI (OVCAR-4 ovarian): 90400 nM | GI50 (NCI-H460 lung): 3580 nM | TGI (NCI-H460 lung): 21400 nM | GI50 (RXF 393 renal): 367 nM | TGI (RXF 393 renal): 2440 nM | GI50 (RPMI-8226 leukemia): 2050 nM | TGI (RPMI-8226 leukemia): 6800 nM | GI50 (HOP-92 NSCLC): 183 nM | TGI (HOP-92 NSCLC): 1970 nM | GI50 (CCRF-CEM leukemia): 801 nM | TGI (CCRF-CEM leukemia): > 37900 nM | GI50 (SF-268 CNS): 835 nM | TGI (SF-268 CNS): 10400 nM | GI50 (NCI-H23 lung): 1370 nM | TGI (NCI-H23 lung): 5330 nM | GI50 (SK-MEL-2 melanoma): 901 nM | TGI (SK-MEL-2 melanoma): 2700 nM | GI50 (UACC-62 melanoma): 419 nM | TGI (UACC-62 melanoma): 2320 nM | GI50 (SW-620 colon): 1900 nM | TGI (SW-620 colon): 10900 nM | GI50 (MOLT-4 leukemia): 465 nM | TGI (MOLT-4 leukemia): 4910 nM | GI50 (HCT-15 colon): 2840 nM | TGI (HCT-15 colon): 17000 nM | GI50 (T-47D breast): 150 nM | TGI (T-47D breast): 1470 nM | GI50 (MDA-MB-231 breast): 960 nM | TGI (MDA-MB-231 breast): 3050 nM | GI50 (UACC-257 melanoma): 1620 nM | TGI (UACC-257 melanoma): 12600 nM | GI50 (SK-OV-3 ovarian): 1490 nM | TGI (SK-OV-3 ovarian): 7140 nM | GI50 (NCI-H226 lung): 1430 nM | TGI (NCI-H226 lung): 10300 nM

— PubChem BioAssay (NCI)
